Data from patent US10117430B2, “Malononitrile compounds for controlling animal pests” (BASF SE, priority 2012, dated 2018).

What was measured:
Format in all cases: in vivo
[1] = system: Yellow Fever Mosquito (Aedes aegypti); test: whole plant or invertebrate; settings: 48 h, in comparison with untreated controls, larval mortality after 2 days
Description: B.12 Yellow Fever Mosquito (Aedes aegypti)
For evaluating control of yellow fever mosquito (Aedes aegypti) the test unit consisted of 96-well-microtiter plates containing 200 μl of tap water per well and 5-15 freshly hatched A. aegypti larvae. The compounds or mixtures were formulated using a solution containing 75% water and 25% DMSO. Different concentrations of formulated compounds or mixtures were sprayed onto the insect diet at 2.5 μl, using a custom built micro atomizer, at two replications. After application, microtiter plates were incubated at 28±1° C., 80±5% relative humidity for 2 days. Larval mortality was then visually assessed.

[2] = system: Vetch Aphid (Megoura viciae); test: B.7 Vetch aphid test on broad bean leaf disks; settings: foliar, 120 h, in comparison with untreated controls, 5 days
Description: B.7 Vetch Aphid (Megoura viciae)
For evaluating control of vetch aphid (Megoura viciae) through contact or systemic means the test unit consisted of 24-well-microtiter plates containing broad bean leaf disks. The compounds were formulated using a solution containing 75% v/v water and 25% v/v DMSO. Different concentrations of formulated compounds were sprayed onto the leaf disks at 2.5 μl, using a custom built micro atomizer, at two replications. After application, the leaf disks were air-dried and 5-8 adult aphids placed on the leaf disks inside the microtiter plate wells. The aphids were then allowed to suck on the treated leaf disks and incubated at about 23±1° C. and about 50±5% relative humidity for 5 days. Aphid mortality and fecundity was then visually assessed.

[3] = system: Green Peach Aphid (Myzus persicae); test: B.3 Green peach aphid systemic test, artificial diet under membrane; settings: 72 h, concentration of the test solution 2500 mg/L, 3 days
From the text: B.3 Green Peach Aphid (Myzus persicae)
For evaluating control of green peach aphid (Myzus persicae) through systemic means the test unit consisted of 96-well-microtiter plates containing liquid artificial diet under an artificial membrane. The compounds were formulated using a solution containing 75% v/v water and 25% v/v DMSO. Different concentrations of formulated compounds were pipetted into the aphid diet, using a custom built pipetter, at two replications. After application, 5-8 adult aphids were placed on the artificial membrane inside the microtiter plate wells. The aphids were then allowed to suck on the treated aphid diet and incubated at about 23±1° C. and about 50±5% relative humidity for 3 days. Aphid mortality and fecundity was then visually assessed.

[4] = system: Cowpea Aphid (Aphis craccivora); test: B.1 Cowpea aphid spray test on potted cowpea plants; settings: in comparison with untreated controls, population reduction assessed after 24, 72 and 120 hours
Description: B.1 Cowpea Aphid (Aphis craccivora)
The active compounds were formulated in 50:50 (v/v) acetone:water. The test solution was prepared at the day of use. Potted cowpea plants colonized with approximately 100-150 aphids of various stages were sprayed after the pest population has been recorded. Population reduction was assessed after 24, 72, and 120 hours.

[5] = system: Orchid Thrips (Dichromothrips corbetti); test: B.4 Orchid thrips floral-immersion test; settings: 96 h, in comparison with untreated controls, after 4 days
Description: B.4 Orchid Thrips (Dichromothrips Corbetti)
Dichromothrips corbetti adults used for bioassay are obtained from a colony maintained continuously under laboratory conditions. For testing purposes, the test compound is diluted to a concentration of 300 ppm (wt compound: vol diluent) in a 1:1 mixture of acetone:water (vol:vol), plus 0.01% vol/vol Kinetic® surfactant. Thrips potency of each compound is evaluated by using a floral-immersion technique. Plastic petri dishes are used as test arenas. All petals of individual, intact orchid flowers are dipped into treatment solution and allowed to dry. Treated flowers are placed into individual petri dishes along with 10-15 adult thrips. The petri dishes are then covered with lids. All test arenas are held under continuous light and a temperature of about 28° C. for duration of the assay. After 4 days, the numbers of live thrips are counted on each flower, and along inner walls of each petri dish. The level of thrips mortality is extrapolated from pre-treatment thrips numbers.

[6] = system: Silverleaf Whitefly (Bemisia argentifolii); test: B.5 Silverleaf whitefly test on sprayed cotton plants; settings: 72 h, in comparison with untreated controls, 3 days after treatment
Description: B.5 Silverleaf Whitefly (Bemisia argentifolii)
The active compounds were formulated in cyclohexanone as a 10,000 ppm solution supplied in 1.3 ml ABgene® tubes. These tubes were inserted into an automated electrostatic sprayer equipped with an atomizing nozzle and they served as stock solutions for which lower dilutions were made in 50% acetone:50% water (v/v). A nonionic surfactant (Kinetic®) was included in the solution at a volume of 0.01% (v/v). Cotton plants at the cotyledon stage (one plant per pot) were sprayed by an automated electrostatic plant sprayer equipped with an atomizing spray nozzle. The plants were dried in the sprayer fume hood and then removed from the sprayer. Each pot was placed into a plastic cup and 10 to 12 whitefly adults (approximately 3-5 days old) were introduced. The insects were collected using an aspirator and 0.6 cm, nontoxic Tygon® tubing (R-3603) connected to a barrier pipette tip. The tip, containing the collected insects, was then gently inserted into the soil containing the treated plant, allowing insects to crawl out of the tip to reach the foliage for feeding. Cups were covered with a reusable screened lid (150-micron mesh polyester screen PeCap from Tetko, Inc.). Test plants were maintained in a growth room at 25° C. and 20-40% relative humidity for 3 days, avoiding direct exposure to fluorescent light (24 hour photoperiod) to prevent trapping of heat inside the cup. Mortality was assessed 3 days after treatment, compared to untreated control plants.

[7] = system: Boll Weevil (Anthonomus grandis); test: B.9 Boll weevil microtiter diet test, egg and larval mortality; settings: 120 h, in comparison with untreated controls, egg and larval mortality after 5 days
Description: B.9 Boll Weevil (Anthonomus grandis)
(§1) For evaluating control of boll weevil (Anthonomus grandis) the test unit consisted of 24-well-microtiter plates containing an insect diet and 20-30 A. grandis eggs. The compounds were formulated using a solution containing 75% v/v water and 25% v/v DMSO. Different concentrations of formulated compounds were sprayed onto the insect diet at 20 μl, using a custom built micro atomizer, at two replications. After application, microtiter plates were incubated at about 23±1° C. and about 50±5% relative humidity for 5 days. Egg and larval mortality was then visually assessed.

[8] = system: Rice brown plant hopper (Nilaparvata lugens); test: B.11 Rice brown plant hopper test on sprayed rice seedlings; settings: in comparison with untreated controls, after 72 hours
Description: B.11 Rice brown plant hopper (Nilaparvata lugens)
Rice seedlings were cleaned and washed 24 hours before spraying. The active compounds were formulated in 50:50 acetone:water (vol:vol) and 0.1% vol/vol surfactant (EL 620) was added. Potted rice seedlings were sprayed with 5 ml test solution, air dried, placed in cages and inoculated with 10 adults. Treated rice plants were kept at about 28-29° C. and relative humidity of about 50-60%. Percent mortality was recorded after 72 hours.

[9] = system: Mediterranean Fruitfly (Ceratitis capitata); test: B.2 Mediterranean fruitfly microtiter diet test, egg and larval mortality; settings: 120 h, in comparison with untreated controls, egg and larval mortality after 5 days
Description: B.2 Mediterranean Fruitfly (Ceratitis capitata)
as §1, with “Mediterranean fruitfly (Ceratitis capitata)” for “boll weevil (Anthonomus grandis)”, “microtiter” for “24-well-microtiter”, “50-80 C. capitata” for “20-30 A. grandis”, “5” for “20”, “28±1°” for “23±1°”, “80±5%” for “50±5%”

[10] = system: Green Soldier Stink Bug (Nezara viridula); test: B.15 Green soldier stink bug test on sprayed soybean pods; settings: 120 h, in comparison with untreated controls, after 5 days
Description: B.15 Green Soldier Stink Bug (Nezara viridula)
The active compound is dissolved at the desired concentration in a mixture of 1:1 (vol:vol) distilled water:aceteone. Surfactant (Kinetic HV) is added at a rate of 0.01% (vol/vol). The test solution is prepared at the day of use. Soybean pods were placed in microwavable plastic cups lined with moist filter paper and inoculated with ten 3rd instar N. viridula. Using a hand atomizer, an approximately 2 ml solution is sprayed into each cup. Treated cups were kept at about 28-29° C. and relative humidity of about 50-60%. Percent mortality was recorded after 5 days.

N#CC(C#N)(Cc1c(Cl)cncc1Cl)c1cc(F)c(F)c(F)c1 [II-66]
≥ 75%: mortality at 2500 ppm [1] | mortality at 2500 ppm [2]

N#CC(C#N)(Cc1ccc(C(F)(F)F)nn1)c1cccc(F)c1 [II-15]
≥ 75%: mortality at 2500 µg/mL [3] | mortality at 500 ppm [4] | mortality at 500 ppm [5] | mortality at 500 ppm [6] | mortality at 2500 ppm [1] | mortality at 2500 ppm [7]

N#CC(C#N)(Cc1cnc(C(F)(F)F)cn1)c1ccc(F)cc1 [II-27]
≥ 75%: mortality at 300 ppm [8] | mortality at 2500 ppm [9] | mortality at 500 ppm [5] | mortality at 500 ppm [6] | mortality at 2500 ppm [1] | mortality at 2500 ppm [7] | mortality at 2500 ppm [2]

N#CC(C#N)(Cc1ccc(Br)cn1)c1ccc(F)cc1 [II-10, 2-[(5-bromo-2-pyridyl)methyl]-2-(4-fluorophenyl)propanedinitrile]
≥ 75%: mortality at 300 ppm [8] | mortality at 500 ppm [5] | mortality at 2500 ppm [7]

N#CC(C#N)(Cc1ccc(C(F)(F)F)nc1)c1ccccc1F [II-24]
≥ 75%: mortality at 300 ppm [8] | mortality at 500 ppm [5] | mortality at 500 ppm [6] | mortality at 2500 ppm [1] | mortality at 2500 ppm [7]

N#CC(C#N)(Cc1cnc(C(F)(F)F)nc1)c1cccc(F)c1 [II-21]
≥ 75%: mortality at 300 ppm [8] | mortality at 500 ppm [4] | mortality at 500 ppm [10] | mortality at 500 ppm [5] | mortality at 500 ppm [6] | mortality at 2500 ppm [1] | mortality at 2500 ppm [7] | mortality at 2500 ppm [2]

N#CC(C#N)(Cc1ccc(C(F)(F)F)nn1)c1ccccc1 [II-13]
≥ 75%: mortality at 2500 µg/mL [3] | mortality at 500 ppm [6] | mortality at 2500 ppm [1] | mortality at 2500 ppm [7]

Cc1cccc(C(C#N)(C#N)Cc2ccc(C(F)(F)F)cn2)c1 [II-37]
≥ 75%: mortality at 2500 ppm [1]

N#CC(C#N)(Cc1ccc(C(F)(F)F)cn1)c1cc(C(F)(F)F)cc(C(F)(F)F)c1 [II-60]
≥ 75%: mortality at 2500 ppm [1]

Cc1cccc(C(C#N)(C#N)Cc2ccc(C(F)(F)F)nc2)c1 [II-22]
≥ 75%: mortality at 300 ppm [8]

N#CC(C#N)(Cc1ccccn1)c1ccccc1 [II-29]
≥ 75%: mortality at 2500 ppm [1]

Cc1cccc(CC(C#N)(C#N)c2cc(F)c(F)c(F)c2)n1 [II-65]
≥ 75%: mortality at 300 ppm [8] | mortality at 500 ppm [10] | mortality at 500 ppm [5] | mortality at 2500 ppm [1] | mortality at 2500 ppm [7]

N#CC(C#N)(Cc1cnc(C(F)(F)F)nc1)c1ccc(F)cc1 [II-23]
≥ 75%: mortality at 300 ppm [8] | mortality at 2500 µg/mL [3] | mortality at 2500 ppm [9] | mortality at 500 ppm [4] | mortality at 500 ppm [5] | mortality at 500 ppm [6] | mortality at 2500 ppm [1] | mortality at 2500 ppm [7] | mortality at 2500 ppm [2]

N#CC(C#N)(Cc1ccc(C(F)(F)F)cn1)c1ccccc1F [II-36]
≥ 75%: mortality at 300 ppm [8] | mortality at 500 ppm [6] | mortality at 2500 ppm [1] | mortality at 2500 ppm [7]

N#CC(C#N)(Cc1ccc(C(F)(F)F)cn1)c1cccc(F)c1F [II-49]
≥ 75%: mortality at 300 ppm [8] | mortality at 500 ppm [10] | mortality at 500 ppm [5]

N#CC(C#N)(Cc1ncc(C(F)(F)F)cn1)c1cccc(F)c1 [II-18]
≥ 75%: mortality at 2500 µg/mL [3] | mortality at 500 ppm [5] | mortality at 500 ppm [6] | mortality at 2500 ppm [1] | mortality at 2500 ppm [7] | mortality at 2500 ppm [2]

N#CC(C#N)(Cc1ccc(C(F)(F)F)nc1)c1cc(F)cc(C(F)(F)F)c1 [II-46]
≥ 75%: mortality at 500 ppm [5] | mortality at 2500 ppm [1]

N#CC(C#N)(Cc1ccc(C(F)(F)F)nc1)c1cc(C(F)(F)F)cc(C(F)(F)F)c1 [II-54]
≥ 75%: mortality at 2500 ppm [1]

COc1cccc(C(C#N)(C#N)Cc2ccc(C(F)(F)F)cn2)c1 [II-39]
≥ 75%: mortality at 2500 µg/mL [3]

N#CC(C#N)(Cc1ccc(F)cn1)c1ccc(F)cc1 [II-12]
≥ 75%: mortality at 500 ppm [6]

C#Cc1ccc(C(C#N)(C#N)Cc2ccc(C(F)(F)F)nc2)cc1 [II-1]
≥ 75%: mortality at 300 ppm [8] | mortality at 500 ppm [6] | mortality at 2500 ppm [7]

Cc1cc(C)cc(C(C#N)(C#N)Cc2ccc(C(F)(F)F)cn2)c1 [II-47]
≥ 75%: mortality at 500 ppm [4] | mortality at 2500 ppm [1]

N#CC(C#N)(Cc1ccc(C(F)(F)F)nc1)c1ccc(Cl)cc1 [II-2]
≥ 75%: mortality at 500 ppm [4] | mortality at 500 ppm [5] | mortality at 500 ppm [6] | mortality at 2500 ppm [1] | mortality at 2500 ppm [7]

N#CC(C#N)(Cc1ccc(C(F)(F)F)cn1)c1ccccc1 [II-4]
≥ 75%: mortality at 300 ppm [8] | mortality at 2500 µg/mL [3] | mortality at 500 ppm [4] | mortality at 500 ppm [10] | mortality at 500 ppm [5] | mortality at 500 ppm [6] | mortality at 2500 ppm [1] | mortality at 2500 ppm [7] | mortality at 2500 ppm [2]
